Measurements taken from ChEMBL document CHEMBL5649167, “The SUV4-20 inhibitor A-196 verifies a role for epigenetics in genomic integrity” (Nat Chem Biol, 2017).
The source made the active and inactive calls. The rule behind the calls is not given here.

Columns and labels:
[1] = target: Histone-lysine N-methyltransferase KMT5B (Homo sapiens) (UniProt Q4FZB7); assay: Inhibition of recombinant human 6His-(Tev)-G-SUV420H1 (69 to 335 residues) using Biotin-tagged H4K20me1 and [3H-SAM] as substrate at 10 uM incubated for 2 hrs by scintillation proximity assay
[2] = target: N-lysine methyltransferase KMT5A (Homo sapiens) (UniProt Q9NQR1); assay: Inhibition of SETD8 (unknown origin) using Biotin-tagged H4K20me1 and [3H-SAM] as substrate at 1 to 10 uM incubated for 2 hrs by scintillation proximity assay; settings: dose 1-10 µM
[3] = target: Histone-lysine N-methyltransferase SETDB1 (Homo sapiens) (UniProt Q15047); assay: Inhibition of SETDB1 (unknown origin) using Biotin-tagged H4K20me1 and [3H-SAM] as substrate at 1 to 10 uM incubated for 2 hrs by scintillation proximity assay; settings: dose 1-10 µM
[4] = target: Histone-lysine N-methyltransferase 2A (Homo sapiens) (UniProt Q03164); assay: Inhibition of MLL1 (unknown origin) using Biotin-tagged H4K20me1 and [3H-SAM] as substrate at 1 to 10 uM incubated for 2 hrs by scintillation proximity assay; settings: dose 1-10 µM
[5] = target: Histone-lysine N-methyltransferase SETD2 (Homo sapiens) (UniProt Q9BYW2); assay: Inhibition of SETD2 (unknown origin) using Biotin-tagged H4K20me1 and [3H-SAM] as substrate at 1 to 10 uM incubated for 2 hrs by scintillation proximity assay; settings: dose 1-10 µM
[6] = target: N-lysine methyltransferase SMYD2 (Homo sapiens) (UniProt Q9NRG4); assay: Inhibition of SMYD2 (unknown origin) using Biotin-tagged H4K20me1 and [3H-SAM] as substrate at 1 to 10 uM incubated for 2 hrs by scintillation proximity assay; settings: dose 1-10 µM
[7] = target: DNA (cytosine-5)-methyltransferase 1 (Homo sapiens) (UniProt P26358); assay: Inhibition of DNMT1 (unknown origin) using dsDNA as substrate at 1 to 10 uM incubated for 1 hrs in the presence of [3H-SAM] by scintillation proximity assay; settings: dose 1-10 µM
[8] = target: Histone-lysine N-methyltransferase, H3 lysine-79 specific (Homo sapiens) (UniProt Q8TEK3); assay: Inhibition of DOT1L (unknown origin) at 1 to 10 uM incubated for 1 hrs by scintillation proximity assay; settings: dose 1-10 µM
[9] = target: Histone-lysine N-methyltransferase NSD2 (Homo sapiens) (UniProt O96028); assay: Inhibition of NSD2 (unknown origin) at 1 to 10 uM incubated for 1 hrs by scintillation proximity assay; settings: dose 1-10 µM
[10] = target: Histone-lysine N-methyltransferase NSD3 (Homo sapiens) (UniProt Q9BZ95); assay: Inhibition of NSD3 (unknown origin) at 1 to 10 uM incubated for 1 hrs by scintillation proximity assay; settings: dose 1-10 µM
[11] = target: Histone-lysine N-methyltransferase ASH1L (Homo sapiens) (UniProt Q9NR48); assay: Inhibition of ASH1L (unknown origin) at 1 to 10 uM incubated for 1 hrs by scintillation proximity assay; settings: dose 1-10 µM
[12] = target: DNMT3A2/3L complex (Homo sapiens) (UniProt Q9Y6K1+Q9UJW3); assay: Inhibition of DNMT3A/3L (unknown origin) at 1 to 10 uM incubated for 1 hrs by scintillation proximity assay; assay type: protein-complex assay; settings: dose 1-10 µM
[13] = target: Histone-lysine N-methyltransferase KMT5B (Homo sapiens) (UniProt Q4FZB7); assay: Binding affinity to recombinant human 6His-(Tev)-G-SUV420H1 (69 to 335 residues) assessed as increase thermal stability by measuring change in melting temperature at 50 uM by thermal shift assay
U2OS [14] = assay: Induction of cell cycle arrest in human U2OS cells assessed as decrease in H4K20me3 in S phase at 0.6 to 6 uM by plot analysis; assay type: functional, cell-based; settings: dose 0.6-6 µM
LNCaP = assay: Cytotoxicity against human LNCaP cells assessed as cell viability at 1.5 to 100 uM incubated after 72 hrs; assay type: functional, cell-based; settings: dose 1.5-100 µM
HL-60 = assay: Cytotoxicity against human HL-60 cells assessed as cell viability upto 12.5 uM incubated for 48 hrs; assay type: functional, cell-based
U2OS [15] = assay: Induction of DNA repair in human U2OS cells expressing I-SceI reporter assessed as substantially inhibition in NHEJ-mediated repair at 1 uM by flow cytometry analysis; assay type: functional, cell-based
U2OS [16] = assay: Inhibition of colony formation in human U2OS cells at 1 uM incubated for 48 hrs in the presence of etoposide by cell clonogenic assay; assay type: functional, cell-based
U2OS [17] = assay: Inhibition of colony formation in human U2OS cells at 1 uM incubated for 48 hrs in the presence of aphidicolin by cell clonogenic assay; assay type: functional, cell-based
U2OS [18] = assay: Inhibition of colony formation in human U2OS cells at 1 uM incubated for 48 hrs in the presence of MMC by cell clonogenic assay; assay type: functional, cell-based
U2OS [19] = assay: Inhibition of colony formation in human U2OS cells at 1 uM incubated for 48 hrs in the presence of CPT by cell clonogenic assay; assay type: functional, cell-based
[20] = target: Cyclin-dependent kinase 1 (Homo sapiens) (UniProt P06493); assay: Inhibition of human CDC2 at 10 uM relative to control
[21] = target: Glycogen synthase kinase-3 beta (Homo sapiens) (UniProt P49841); assay: Inhibition of human GSK3beta at 10 uM relative to control
[22] = target: Protein kinase C beta type (Homo sapiens) (UniProt P05771); assay: Inhibition of human PKCbeta 2 at 10 uM relative to control
[23] = target: Epidermal growth factor receptor (Homo sapiens) (UniProt P00533); assay: Inhibition of human EGFR at 10 uM relative to control
[24] = target: Aurora kinase A (Homo sapiens) (UniProt O14965); assay: Inhibition of human AurA at 10 uM relative to control
[25] = target: Serine/threonine-protein kinase PAK 4 (Homo sapiens) (UniProt O96013); assay: Inhibition of human PAK4 at 10 uM relative to control
Rattus norvegicus = species on record: Rattus norvegicus; assay: Inhibition of Rat alpha 2-Adrenoceptor at 10 uM relative to control
[26] = target: 3-phosphoinositide-dependent protein kinase 1 (Homo sapiens) (UniProt O15530); assay: Inhibition of human PDK1 at 10 uM relative to control
[27] = target: Histone-lysine N-methyltransferase KMT5B (Homo sapiens) (UniProt Q4FZB7); assay: Inhibition of recombinant human 6His-(Tev)-G-SUV420H1 (69 to 335 residues) using Biotin-tagged H4K20me1 and [3H-SAM] as substrate incubated for 2 hrs by scintillation proximity assay
U2OS [28] = assay: Inhibition of H4K20me1 in human U2OS cells assessed as change in methylation level at 10 uM incubated for 48 hrs by Western blotting analysis; assay type: functional, cell-based
MEF = assay: Antiproliferative activity against mouse MEF cells assessed as change in H4K20me1 at 10 uM incubated for 3 days by immunofluorescence analysis; assay type: functional, cell-based; settings: time 3.0 day
[29] = target: 5-hydroxytryptamine receptor 7 (Homo sapiens) (UniProt P34969); assay: Inhibition of human 5-HT7 in stable HEK cells at 10 uM relative to control; assay type: cell-based

Histone-lysine N-methyltransferase KMT5B (Homo sapiens), sequence (Q4FZB7 whole entry, looked up, the tested form may be a part): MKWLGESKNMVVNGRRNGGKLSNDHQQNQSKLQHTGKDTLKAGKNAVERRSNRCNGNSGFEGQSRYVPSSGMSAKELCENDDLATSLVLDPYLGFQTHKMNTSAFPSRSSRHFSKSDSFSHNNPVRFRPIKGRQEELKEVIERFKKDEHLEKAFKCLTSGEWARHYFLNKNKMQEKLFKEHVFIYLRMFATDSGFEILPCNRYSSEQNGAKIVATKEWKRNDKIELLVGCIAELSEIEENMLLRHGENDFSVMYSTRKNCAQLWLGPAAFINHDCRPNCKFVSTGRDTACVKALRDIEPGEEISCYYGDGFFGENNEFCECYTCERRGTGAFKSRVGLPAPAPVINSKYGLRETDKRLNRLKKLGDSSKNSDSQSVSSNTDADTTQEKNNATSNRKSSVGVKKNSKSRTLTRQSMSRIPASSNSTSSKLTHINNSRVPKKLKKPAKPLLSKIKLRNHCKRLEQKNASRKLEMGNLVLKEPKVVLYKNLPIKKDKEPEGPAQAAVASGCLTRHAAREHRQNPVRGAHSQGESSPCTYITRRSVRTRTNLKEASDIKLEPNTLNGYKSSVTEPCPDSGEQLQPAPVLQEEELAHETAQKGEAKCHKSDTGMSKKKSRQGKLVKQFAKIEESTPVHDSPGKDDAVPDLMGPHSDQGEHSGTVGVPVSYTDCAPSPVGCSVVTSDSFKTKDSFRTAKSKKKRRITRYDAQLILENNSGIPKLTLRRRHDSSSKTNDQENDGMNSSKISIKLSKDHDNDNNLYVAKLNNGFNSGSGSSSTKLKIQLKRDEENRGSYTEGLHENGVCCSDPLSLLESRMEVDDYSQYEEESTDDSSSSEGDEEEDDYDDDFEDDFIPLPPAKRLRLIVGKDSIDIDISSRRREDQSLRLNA
Histone-lysine N-methyltransferase NSD3 (Homo sapiens), sequence (Q9BZ95 whole entry): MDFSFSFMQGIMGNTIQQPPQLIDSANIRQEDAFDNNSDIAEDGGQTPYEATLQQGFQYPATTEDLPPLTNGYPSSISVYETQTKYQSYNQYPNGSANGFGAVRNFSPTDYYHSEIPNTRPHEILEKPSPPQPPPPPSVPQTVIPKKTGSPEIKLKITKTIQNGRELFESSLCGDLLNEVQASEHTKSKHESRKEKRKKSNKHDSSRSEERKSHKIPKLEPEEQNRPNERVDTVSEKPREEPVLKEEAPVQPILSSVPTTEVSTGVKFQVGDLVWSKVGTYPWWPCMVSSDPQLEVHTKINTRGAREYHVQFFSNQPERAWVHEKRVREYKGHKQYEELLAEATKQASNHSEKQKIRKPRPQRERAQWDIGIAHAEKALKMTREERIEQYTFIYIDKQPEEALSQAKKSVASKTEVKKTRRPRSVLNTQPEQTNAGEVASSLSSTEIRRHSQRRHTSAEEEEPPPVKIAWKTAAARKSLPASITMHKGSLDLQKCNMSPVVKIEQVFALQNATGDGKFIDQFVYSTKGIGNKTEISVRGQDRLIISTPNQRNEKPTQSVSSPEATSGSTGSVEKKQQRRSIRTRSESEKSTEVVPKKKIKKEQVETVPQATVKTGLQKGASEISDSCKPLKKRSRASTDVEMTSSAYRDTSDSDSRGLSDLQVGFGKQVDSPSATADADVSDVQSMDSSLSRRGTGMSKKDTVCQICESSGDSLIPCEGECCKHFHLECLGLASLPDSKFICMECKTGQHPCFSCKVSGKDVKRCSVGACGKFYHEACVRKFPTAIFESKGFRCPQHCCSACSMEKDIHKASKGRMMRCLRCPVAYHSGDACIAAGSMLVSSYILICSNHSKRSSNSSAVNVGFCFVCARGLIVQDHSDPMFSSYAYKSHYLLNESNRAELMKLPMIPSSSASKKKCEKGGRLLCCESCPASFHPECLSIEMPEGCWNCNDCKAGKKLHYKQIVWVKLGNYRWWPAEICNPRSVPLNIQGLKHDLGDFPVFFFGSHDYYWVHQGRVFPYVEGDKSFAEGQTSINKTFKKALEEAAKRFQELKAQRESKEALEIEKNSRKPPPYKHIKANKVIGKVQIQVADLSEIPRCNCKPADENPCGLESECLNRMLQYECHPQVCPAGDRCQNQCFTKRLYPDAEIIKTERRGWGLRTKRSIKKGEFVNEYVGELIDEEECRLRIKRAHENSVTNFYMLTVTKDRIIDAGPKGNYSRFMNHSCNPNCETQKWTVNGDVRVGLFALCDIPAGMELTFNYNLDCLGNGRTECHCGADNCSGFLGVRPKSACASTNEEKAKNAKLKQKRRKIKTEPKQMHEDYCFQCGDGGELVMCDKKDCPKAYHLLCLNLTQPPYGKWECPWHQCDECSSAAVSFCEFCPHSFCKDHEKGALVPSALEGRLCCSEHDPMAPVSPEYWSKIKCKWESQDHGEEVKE
Histone-lysine N-methyltransferase NSD2 (Homo sapiens), sequence (O96028 whole entry): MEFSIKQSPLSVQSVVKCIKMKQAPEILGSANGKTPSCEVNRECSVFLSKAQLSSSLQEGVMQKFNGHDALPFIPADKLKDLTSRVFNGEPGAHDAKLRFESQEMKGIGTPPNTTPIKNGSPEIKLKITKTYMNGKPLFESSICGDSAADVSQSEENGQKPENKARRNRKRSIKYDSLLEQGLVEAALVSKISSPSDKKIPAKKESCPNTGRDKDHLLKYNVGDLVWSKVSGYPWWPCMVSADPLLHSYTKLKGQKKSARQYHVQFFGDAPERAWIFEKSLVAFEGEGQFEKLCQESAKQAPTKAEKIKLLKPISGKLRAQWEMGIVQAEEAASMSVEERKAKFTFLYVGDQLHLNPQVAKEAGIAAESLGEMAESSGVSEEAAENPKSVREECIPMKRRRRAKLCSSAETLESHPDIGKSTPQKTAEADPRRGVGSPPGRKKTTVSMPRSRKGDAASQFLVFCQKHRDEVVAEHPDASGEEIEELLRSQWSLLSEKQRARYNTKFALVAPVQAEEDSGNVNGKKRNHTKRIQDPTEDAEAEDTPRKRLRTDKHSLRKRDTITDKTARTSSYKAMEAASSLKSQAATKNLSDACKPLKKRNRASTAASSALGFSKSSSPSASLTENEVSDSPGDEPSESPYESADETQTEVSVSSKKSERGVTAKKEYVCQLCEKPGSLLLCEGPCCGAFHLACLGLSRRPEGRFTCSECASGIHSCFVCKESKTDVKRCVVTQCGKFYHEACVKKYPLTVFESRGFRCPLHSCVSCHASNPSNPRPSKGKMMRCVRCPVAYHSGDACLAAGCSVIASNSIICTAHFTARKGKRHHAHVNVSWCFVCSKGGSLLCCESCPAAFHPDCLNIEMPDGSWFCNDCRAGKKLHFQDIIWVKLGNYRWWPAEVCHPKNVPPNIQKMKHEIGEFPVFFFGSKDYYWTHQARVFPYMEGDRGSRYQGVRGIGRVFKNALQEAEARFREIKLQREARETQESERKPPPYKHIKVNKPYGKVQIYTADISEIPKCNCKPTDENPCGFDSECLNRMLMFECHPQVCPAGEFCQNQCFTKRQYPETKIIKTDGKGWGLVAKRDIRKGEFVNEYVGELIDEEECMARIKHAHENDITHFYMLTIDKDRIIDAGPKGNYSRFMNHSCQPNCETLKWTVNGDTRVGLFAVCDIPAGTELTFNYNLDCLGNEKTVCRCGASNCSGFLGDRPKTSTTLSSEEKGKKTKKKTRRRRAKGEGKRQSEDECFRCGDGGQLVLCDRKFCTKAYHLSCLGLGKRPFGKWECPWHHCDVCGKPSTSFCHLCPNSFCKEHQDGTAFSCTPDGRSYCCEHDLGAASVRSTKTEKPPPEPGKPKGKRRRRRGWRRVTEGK
Epidermal growth factor receptor (Homo sapiens), sequence (P00533 whole entry): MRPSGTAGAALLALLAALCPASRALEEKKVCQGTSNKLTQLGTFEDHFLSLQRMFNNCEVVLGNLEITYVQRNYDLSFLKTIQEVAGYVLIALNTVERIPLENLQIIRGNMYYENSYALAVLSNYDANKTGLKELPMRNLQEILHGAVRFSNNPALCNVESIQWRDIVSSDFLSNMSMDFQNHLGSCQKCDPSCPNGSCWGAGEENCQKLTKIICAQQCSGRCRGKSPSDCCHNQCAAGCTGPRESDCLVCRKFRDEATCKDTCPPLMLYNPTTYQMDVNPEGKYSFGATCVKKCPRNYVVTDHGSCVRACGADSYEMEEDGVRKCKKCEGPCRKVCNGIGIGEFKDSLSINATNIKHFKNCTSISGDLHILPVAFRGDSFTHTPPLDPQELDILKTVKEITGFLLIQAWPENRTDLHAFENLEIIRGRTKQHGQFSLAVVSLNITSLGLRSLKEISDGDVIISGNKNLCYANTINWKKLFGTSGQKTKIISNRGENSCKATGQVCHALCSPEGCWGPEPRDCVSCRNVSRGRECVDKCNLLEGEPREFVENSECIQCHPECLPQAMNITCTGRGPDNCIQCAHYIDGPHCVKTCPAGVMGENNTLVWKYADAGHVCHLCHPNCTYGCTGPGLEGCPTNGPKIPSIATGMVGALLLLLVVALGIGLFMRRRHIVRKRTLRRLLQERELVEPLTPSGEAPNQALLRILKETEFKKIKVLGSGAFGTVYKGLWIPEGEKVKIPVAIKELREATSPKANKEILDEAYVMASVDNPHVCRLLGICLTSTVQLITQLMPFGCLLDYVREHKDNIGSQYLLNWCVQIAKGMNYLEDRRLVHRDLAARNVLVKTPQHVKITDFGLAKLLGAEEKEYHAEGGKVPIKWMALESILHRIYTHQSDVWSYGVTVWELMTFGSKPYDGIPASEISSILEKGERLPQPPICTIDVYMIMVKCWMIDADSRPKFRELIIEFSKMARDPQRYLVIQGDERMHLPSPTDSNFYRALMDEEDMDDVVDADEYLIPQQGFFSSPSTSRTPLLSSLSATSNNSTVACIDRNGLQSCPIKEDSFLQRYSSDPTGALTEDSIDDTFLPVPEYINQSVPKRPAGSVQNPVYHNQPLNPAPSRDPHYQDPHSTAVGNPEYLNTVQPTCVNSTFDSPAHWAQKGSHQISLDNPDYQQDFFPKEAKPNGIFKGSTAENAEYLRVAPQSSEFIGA

In the case of Clc1cc2c(NC3CCCC3)nnc(-c3ccncc3)c2cc1Cl, the inhibition [1] is reported as “Active”, the inhibition [2] is reported as “inactive” and the inhibition [3] is reported as “inactive”. For the same compound, the inhibition [4] was “inactive”, the inhibition [5] was “inactive” and the inhibition [6] was “inactive”. The inhibition [7] was “inactive”, the inhibition [8] was “inactive” and the inhibition [9] was “inactive”. The inhibition [10] was “inactive”, the inhibition [11] was “inactive” and the inhibition [12] was “inactive”. For the same compound, the ΔTm [13] was 6.4 °C, the Activity (U2OS [14]) was “Active” and the Activity (LNCaP) was “Active”. The Activity (HL-60) was “Active”, the Activity (U2OS [15]) was “Active” and the inhibition (U2OS [16]) was “Active”. For the same compound, the inhibition (U2OS [17]) was “Active”, the inhibition (U2OS [18]) was “Active” and the inhibition (U2OS [19]) was “Active”. For the same compound, the inhibition [20] was 3%, the inhibition [21] was 1% and the inhibition [22] was -3%. It also gave an inhibition [23] of -4%, an inhibition [24] of -6% and an inhibition [25] of -8%. For the same compound, the inhibition (Rattus norvegicus) was 5% and the inhibition [26] was -7%.

In the case of O=C(c1nnc(NC2CCCC2)c2cc(Cl)c(Cl)cc12)N1CCC(O)CC1, the inhibition [27] is reported as “inactive”, the Activity (U2OS [28]) is reported as “inactive” and the Activity (MEF) is reported as “inactive”. It also gave an inhibition [29] of 19%.
